Data: patent US5010095A, “N-(W-substituted alkyl)-'-(imidazol-4-yl)alkyl)guanidine” (Cedona Pharmaceuticals B.V., priority 1986, dated 1991)
Entries after “also recorded” stand apart in the source; their conditions may differ. Like-named read-outs stand apart in the source and are kept apart here.

How the values were obtained:
[1] = biological target: T1, histamine H1 (guinea-pig ileum) (Cavia porcellus, UniProt P31389); assay: Histamine H1-activity, guinea-pig ileum
T1 construct: from tissue; host or cells: guinea-pig ileum (isolated organ)
T1 sequence (P31389 whole entry): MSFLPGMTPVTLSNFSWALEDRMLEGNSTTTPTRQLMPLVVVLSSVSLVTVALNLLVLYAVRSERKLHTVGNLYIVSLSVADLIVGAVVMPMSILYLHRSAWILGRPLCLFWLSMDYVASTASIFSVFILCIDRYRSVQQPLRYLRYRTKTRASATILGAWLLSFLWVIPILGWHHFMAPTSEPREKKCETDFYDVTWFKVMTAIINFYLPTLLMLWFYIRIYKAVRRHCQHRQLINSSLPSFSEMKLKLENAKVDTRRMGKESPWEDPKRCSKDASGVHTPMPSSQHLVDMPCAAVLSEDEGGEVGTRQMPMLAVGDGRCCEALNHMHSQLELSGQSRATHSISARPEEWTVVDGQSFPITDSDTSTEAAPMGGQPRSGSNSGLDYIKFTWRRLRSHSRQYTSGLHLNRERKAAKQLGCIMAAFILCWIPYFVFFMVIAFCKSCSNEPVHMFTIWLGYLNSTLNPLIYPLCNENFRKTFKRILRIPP
Excerpt: (§1) The values for the H1 -activity given are the mean of at least two experiments in quadruplicate, while the values for the H2 -activity result from at least two experiments in duplicate.

[2] = biological target: T2, histamine H2 (guinea-pig right atrium) (Cavia porcellus, UniProt P47747); assay: Histamine H2-activity, guinea-pig right atrium
T2 construct: from tissue; host or cells: guinea-pig right atrium (isolated organ)
T2 sequence (P47747 whole entry): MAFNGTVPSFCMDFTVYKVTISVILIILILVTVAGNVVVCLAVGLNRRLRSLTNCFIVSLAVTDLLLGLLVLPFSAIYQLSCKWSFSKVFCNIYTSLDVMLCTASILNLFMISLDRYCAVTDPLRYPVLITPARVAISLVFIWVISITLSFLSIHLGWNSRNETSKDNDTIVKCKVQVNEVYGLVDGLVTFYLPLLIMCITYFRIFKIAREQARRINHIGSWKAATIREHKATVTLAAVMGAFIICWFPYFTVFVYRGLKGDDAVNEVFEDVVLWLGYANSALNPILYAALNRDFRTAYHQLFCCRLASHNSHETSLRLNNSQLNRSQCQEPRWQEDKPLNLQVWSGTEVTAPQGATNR
Excerpt: as §1
(§2) Guinea-pig right atrium H2
(§3) Ther., 19, 545-550 (1984).

[3] = biological target: T3, histamine H2 (guinea-pig gastric fundus) (Cavia porcellus, UniProt P47747); assay: Histamine H2-activity, acid secretion of the isolated gastric fundus of the guinea-pig
T3 construct: acid secretion of the isolated gastric fundus of the guinea-pig; from tissue; host or cells: guinea-pig gastric fundus (isolated organ)
T3 sequence (P47747 whole entry): as above
Excerpt: as §1
(§4) Guinea-pig gastric acid secretion (H2)

histamine H1 = biological target: T4, histamine H1 (Cavia porcellus, UniProt P31389); assay: Histamine H1-activity, overall discussion (ileum/trachea); set-up: species or system guinea-pig; conditions: structure-activity discussion
T4 construct: functional contraction
T4 sequence (P31389 whole entry): as the sequence (P31389 whole entry) above
Experimental: The results of pharmacological tests with said new compounds are summarized in Table A (H1 -activity) and Table B (H2 -activity). The values for the H1 -activity given are the mean of at least two experiments in quadruplicate, while the values for the H2 -activity result from at least two experiments in duplicate.
(§5) Male guinea-pigs (350-500 g) were killed by a blow on the head and the trachea removed. Single segments were cut from the trachea, loaded with 0.4 g and placed in an organ bath (35° C.) containing 120 mM NaCl, 6 mM KCl, 1 mM MgSO4, 2.5 mM CaCl2, 1 mM NaH2 PO4, […] and 6 mM glucose. The organ bath was gassed with oxygen containing 5% CO2. PD2, intrinsic acitivity and antagonistic activity of the test compounds were determined from isotonically recorded, cumulative dose-response curves.

histamine H2 = biological target: T5, histamine H2 (Cavia porcellus, UniProt P47747); assay: Histamine H2-activity, overall discussion (atrium/gastric fundus); set-up: species or system guinea-pig; conditions: atrium and fundus; structure-activity discussion
T5 construct: functional chronotropy and acid secretion
T5 sequence (P47747 whole entry): as the sequence (P47747 whole entry) above
Excerpt: as §1, §2, §3, §4

[4] = biological target: T6, histamine H1 (guinea-pig trachea) (Cavia porcellus, UniProt P31389); assay: Histamine H1-activity, guinea-pig trachea; conditions: for Kb: ± 0,2, mean of at least two experiments in quadruplicate
T6 construct: Single segments were cut from the trachea; from tissue; host or cells: guinea-pig trachea (isolated segments)
T6 sequence (P31389 whole entry): as the sequence (P31389 whole entry) above
Experimental: as §1, §5

[5] = guinea-pig ileum, ±0,2, mean of at least two experiments in quadruplicate
[6] = guinea-pig right atrium, ±0,1, at least two experiments in duplicate
[7] = read-out: Histamine H2-activity, α (intrinsic activity), guinea-pig right atrium, at least two experiments in duplicate
[8] = guinea-pig gastric fundus, ±0,2, at least two experiments in duplicate
[9] = read-out: Histamine H2-activity, α (intrinsic activity), guinea-pig gastric fundus, at least two experiments in duplicate
[10] = guinea pig, read-out: Histamine H2-activity, atrium, α (intrinsic activity)
[11] = guinea pig, read-out: Histamine H2-activity, gastric fundus, α (intrinsic activity)
[12] = gastric fundus, versus compound I

Row | Compound | Kb [1, 5] | EC50 [2, 6] | Emax [2, 7] | EC50 [3, 8] | Emax [3, 9] | H1-activity, comparison in words (histamine H1) | H2-activity, comparison in words (histamine H2) | Kb ([4]; guinea-pig trachea) | further results
1 | NC(=NCCCc1c[nH]cn1)NCCSCc1ccccc1 [XII, reference compound] | 3160 nM | 63.1 nM | 100% | 25.1 nM | 100% | no change in H1 -activity |  |  | decrease in H2-activity, atrium, versus impromidine ([2]; guinea-pig atrium, 5-methylimidazole of impromidine replaced by phenyl): 4 fold; decrease in H2-activity, gastric fundus, versus impromidine ([3]; gastric fundus, 5-methylimidazole of impromidine replaced by phenyl): 8 fold
2 | N=C(NCCCc1c[nH]cn1)NCCC(c1ccccc1)c1ccccc1 [Compound IX, N-(3.3-diphenylpropyl)-N'-[3-(imidazol-4-yl)propyl]guanidine] | 501 nM | 20 nM | 100% |  |  | Analogous results; also recorded: almost as potent H1 -antagonists as compound I | Analogous results |  | H2-activity on the atrium, comparison in words ([2]; guinea-pig right atrium): remarkable high potency on the guinea-pig right atrium; also recorded: almost as potent as impromidine on the atrium; also recorded: most potent compounds of this series on the guinea-pig right atrium
3 | N=C(NCCc1c[nH]cn1)NCCC(c1ccccc1)c1ccccc1 [VIII, N-(3.3-diphenylpropyl)-N'-[2-(imidazol-4-yl)ethyl] guanidine] | 631 nM | 2510 nM | 90% | 10000 nM | 0% | almost as potent H1 -antagonists as compound I |  |  | H2-activity on the atrium, comparison in words ([2]; guinea-pig right atrium): remarkable high potency on the guinea-pig right atrium
4 | N=C(NCCSC(c1ccccc1)c1ccccc1)NCCc1c[nH]cn1 [II, N-[2-(diphenylmethylthio)ethyl]-N'-[2-imidazol-4-yl)ethyl guanidine] |  |  |  |  |  | no effect on the H1 -activity | marked decrease in H2 -activity, both on the atrium and on the fundus |  | Kb [1]: 398 nM; EC50 [2]: 15800 nM; Emax [2, 10]: 80%; EC50 [3]: 12600 nM; Emax [3, 11]: 50%
5 | N=C(NCCCc1c[nH]cn1)NCCSC(c1ccccc1)c1ccccc1 [Compound I, N-[2-(diphenylmethylthio)ethyl]-N'-[3-(imidazol-4-yl)propyl] guanidine] | 316 nM | 158 nM | 100% | 794 nM | 100% |  |  |  | H2-activity on the atrium, comparison in words ([2]; guinea-pig right atrium): most potent compounds of this series on the guinea-pig right atrium; decrease in H2-agonism, fundus, versus compound XII ([3]; fundus, extra phenyl group in compound XII): 32 fold
6 | Cc1ccc(C(SCCNC(=N)NCCc2c[nH]cn2)c2ccccc2)cc1 (stereo not drawn) [Compound V] | 251 nM | 100000 nM | 0% | 100000 nM | 0% | Analogous results; also recorded: only little or no effect at all on the H1 -antagonism | Analogous results; also recorded: strong decrease in H2 -activity |  | 
7 | N=C(NCCCc1c[nH]cn1)NCCSC(c1ccccc1)c1ccc(F)cc1 (stereo not drawn) [Compound VI, N-[2-(α-phenyl-4-fluorobenzylthio)ethyl]-N'-[3-(imidazol-4-yl)propyl]guanidine] | 251 nM | 1260 nM | 80% | 3160 nM | 40% | only little or no effect at all on the H1 -antagonism | strong decrease in H2 -activity | 158 nM | 
8 | NCCc1c[nH]cn1 [Histamine, reference compound] |  |  |  |  |  |  |  |  | Emax [2, 10]: 100%; Emax [3, 11]: 100%
9 | Cc1ccccc1C(SCCNC(=N)NCCCc1c[nH]cn1)c1ccccn1 (stereo not drawn) [Compound VII, N-[3-(imidazol-4-yl)propyl]-N'-(2-[2-methyl-alpha-(2-pyridyl)benzylthio]ethyl)guanidine] | 398 nM | 1260 nM | 80% |  |  | almost as potent H1 -antagonists as compound I | almost as potent H2 -antagonist as the para methyl and fluoro analogues | 1000 nM | 
10 | N=C(NCCCc1c[nH]cn1)NCCOC(c1ccccc1)c1ccccc1 [III, N-[2-(diphenylmethoxy)ethyl]-N'-[3-(imidazol-4-yl)propyl] guanidine] | 31.6 nM | 3160 nM | 90% | 1580 nM | 40% | most potent H1 -antagonists of this series of impromidine analogues |  | 25.1 nM | H1 potency relative to the starting compound, ileum ([1]; guinea-pig ileum, versus sulphur starting compound (I)): ten times as potent as the starting compound; H1 potency relative to the starting compound, trachea ([4]; guinea-pig trachea, versus sulphur starting compound (I)): 25 times; decrease in H2-agonism, atrium, versus compound I ([2]; atrium, sulphur of compound I replaced by oxygen): 20 fold; change in intrinsic activity on the gastric fundus, in words [3, 12]: remarkable decrease in intrinsic activity; change in pD2 on the gastric fundus, in words [3, 12]: less pronounced
11 | N=C(NCCCc1c[nH]cn1)NCCN(Cc1ccccc1)c1ccccc1 [Compound XI, N-[2-(N'-benzyl-N'-phenylamino)ethyl]-N"-[3-(imidazol-4-yl)propyl]guanidine] | 25.1 nM | 398 nM | 100% | 316 nM | 70% | slightly more potent H1 -antagonist than the oxygen analogue compound II; also recorded: most potent H1 -antagonists of this series of impromidine analogues |  | 15.8 nM | potency relative to histamine on the atrium, in words ([2]; atrium): about twice as potent as histamine on the atrium; activity relative to impromidine, atrium ([2]; atrium, % of the activity of impromidine): about 4%; activity relative to impromidine, gastric fundus ([3]; gastric fundus, % of the activity of impromidine): about 1%; activity relative to histamine, gastric fundus ([3]; gastric fundus, times the activity of histamine): 10 times
12 | N=C(NCC=C(c1ccccc1)c1ccccc1)NCCCc1c[nH]cn1 [Compound X] | 200 nM | 100 nM | 100% | 2510 nM | 90% | almost as potent H1 -antagonists as compound I |  | 631 nM | decrease in H2-activity, atrium, on introduction of a double bond ([2]; atrium, introduction of a double bond (saturated analogue: IX)): 4 fold; H2-activity on the atrium, comparison in words ([2]; guinea-pig right atrium): most potent compounds of this series on the guinea-pig right atrium
13 | Cc1ccc(C(SCCNC(=N)NCCCc2c[nH]cn2)c2ccccc2)cc1 (stereo not drawn) [IV, N-[3-(imidazol-4-yl)propyl]-N'-2-[α-phenyl-4-methylbenzylthio]ethyl guanidine] | 398 nM | 1260 nM | 80% |  |  | only little or no effect at all on the H1 -antagonism | strong decrease in H2 -activity |  | 
14 | CN(C)CCCSC(=N)N [dimaprit, reference compound] |  |  |  |  |  |  |  |  | effect on resting state and histamine induced contractions of the trachea ([4]; up to 10^-3 M): neither effect on the resting state of the organ nor on the histamine induced contractions
